Experimental data as given in ChEMBL document CHEMBL3046370, “Synthesis and biological evaluation of , -unsaturated ketone as potential antifungal agents” (2009).
≈ marks a conversion by molar mass, not a printed value.

How the values were obtained:
Candida albicans [1] = experiment: Antifungal activity against fluconazole-sensitive Candida albicans ATCC 10231 after 48 hr by broth dilution method; type: functional; settings: ATCC 10231, 48 h
Candida albicans [2] = experiment: Antifungal activity against fluconazole-resistant Candida albicans NCIM 3446 after 48 hr by broth dilution method; type: functional; settings: NCIM 3446, 48 h

Row | SMILES | MIC (Candida albicans [1]) [µg/mL] | MIC (Candida albicans [2]) [µg/mL]
1 | COc1ccc(/C=C/C(=O)c2cccs2)cc1OC | 10 (≈ 36.5 µM) | 20 (≈ 72.9 µM)
2 | CSc1ccc(/C=C/C(=O)c2ccc(F)cc2)cc1 | 5 (≈ 18.4 µM) | 8 (≈ 29.4 µM)
3 | CSc1ccc(/C=C/C(=O)c2ccc(-c3ccccc3)cc2)cc1 | 100 (≈ 303 µM) | 250 (≈ 757 µM)
4 | CSc1ccc(/C=C/C(=O)c2cccs2)cc1 | 5 (≈ 19.2 µM) | 5 (≈ 19.2 µM)
5 | CSc1ccc(/C=C/C(=O)c2ccc(Br)s2)cc1 | 40 (≈ 118 µM) | 50 (≈ 147 µM)
6 | COc1ccc(/C=C/C(=O)c2ccc(Br)s2)cc1OC | 50 (≈ 142 µM) | 100 (≈ 283 µM)
7 | O=C(/C=C/c1ccc(-c2ccccc2)cc1)c1cccs1 | 100 (≈ 344 µM) | 250 (≈ 861 µM)
8 | O=C(/C=C/c1ccc(-c2ccccc2)cc1)c1ccc(Br)s1 | 100 (≈ 271 µM) | 250 (≈ 677 µM)
9 | COc1ccc(/C=C/C(=O)c2cccs2)cc1 | 20 (≈ 81.9 µM) | 20 (≈ 81.9 µM)
10 | COc1ccc(/C=C/C(=O)c2ccc(Br)s2)cc1 | 50 (≈ 155 µM) | 100 (≈ 309 µM)
11 | CSc1ccc(/C=C/C(=O)c2ccc([N+](=O)[O-])cc2)cc1 | 50 (≈ 167 µM) | 100 (≈ 334 µM)
12 | CSc1ccc(/C=C/C(=O)c2ccc(Cl)cc2)cc1 | 10 (≈ 34.6 µM) | 20 (≈ 69.3 µM)
13 | CSc1ccc(/C=C/C(=O)c2cccc(O)c2)cc1 | 20 (≈ 74 µM) | 40 (≈ 148 µM)
14 | COc1ccc(C(=O)/C=C/c2ccc(SC)cc2)cc1 | 10 (≈ 35.2 µM) | 20 (≈ 70.3 µM)
15 | CSc1ccc(/C=C/C(=O)c2ccccc2O)cc1 | 20 (≈ 74 µM) | 20 (≈ 74 µM)
16 | CSc1ccc(/C=C/C(=O)c2ccccc2)cc1 | 20 (≈ 78.6 µM) | 40 (≈ 157 µM)
17 | CSc1ccc(/C=C/C(=O)c2ccc(Cl)cc2Cl)cc1 | 50 (≈ 155 µM) | 200 (≈ 619 µM)
18 | CSc1ccc(/C=C/C(=O)c2ccc(Br)cc2)cc1 | 40 (≈ 120 µM) | 100 (≈ 300 µM)
19 | CSc1ccc(/C=C/C(=O)c2ccc(O)cc2)cc1 | 20 (≈ 74 µM) | 40 (≈ 148 µM)
20 | COc1ccc(C(=O)/C=C/c2ccc(OC)c(OC)c2)cc1 | 20 (≈ 67 µM) | 10 (≈ 33.5 µM)
21 | OC(Cn1cncn1)(Cn1cncn1)c1ccc(F)cc1F [FLUCONAZOLE] | 20 (≈ 65.3 µM) | 100 (≈ 327 µM)
